Measured values reported in PubChem BioAssay (NCI).
Where “and” joins values, the source holds several entries; their conditions need not be identical. Equal values may be shown once.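 Five compound concentrations were applied to cells in 96-well plates for 48 hours; endpoints were derived by simple linear interpolation of the resulting dose-response curve. GI50 is the concentration that inhibits growth by half. The concentration for full growth arrest is given as TGI.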

Legend:
Assay in all cases: DTP human tumour cell line panel, 48 h
[1] = tested on: DMS 114 small cell lung
[2] = tested on: DMS 273 small cell lung
[3] = tested on: HOP-92 NSCLC
[4] = tested on: M14 melanoma
[5] = tested on: MALME-3M melanoma
[6] = tested on: OVCAR-8 ovarian
[7] = tested on: SNB-78 CNS
[8] = tested on: UO-31 renal
[9] = tested on: DU-145 prostate
[10] = tested on: NCI/ADR-RES ovarian

Structure (SMILES) | TGI [1] | TGI [2] | TGI [3] | TGI [4] | TGI [5] | TGI [6] [µM] | TGI [7] [µM] | TGI [8] | GI50 [1] [µM] | GI50 [2] [µM] | GI50 [3] [µM] | GI50 [4] [µM] | GI50 [5] | GI50 [6] | GI50 [7] | GI50 [8] [µM] | GI50 [9] [µM] | TGI [9] | GI50 [10] | TGI [10]
CCOC(=O)CNC(SC)=C(C#N)C#N | > 100 µM | > 100 µM | > 100 µM | > 100 µM | > 100 µM | > 100 | > 100 | > 100 µM |  |  |  |  |  |  |  |  |  |  |  | 
CC1(C)CCc2cc3c(cc2O1)OC(C)(C)C1c2c(ccc4c2CCC(C)(C)O4)OC31 (stereo not drawn) | > 100 µM | > 100 µM | > 100 µM | > 100 µM |  | > 100 | > 100 | > 100 µM |  |  |  |  |  |  |  |  |  |  |  | 
Cn1cc2ccccc2c1-c1nc(F)nc(Oc2ccc3c(c2)CC[C@@H]2C3CC[C@]3(C)C(O)CCC23)n1 (stereo partly drawn) | 37.8 µM | 43.2 µM | 44.3 µM | 30.1 µM | 39.9 µM | 36 | 36.1 | 63.6 µM |  |  |  |  |  |  |  |  |  |  |  | 
CCC[CH2][Sn]1([CH2]CCC)[O]C(=O)C[S]1 | 4.08 µM | 6.07 µM | 3.95 µM | 4.43 µM | 2.52 µM | 5.46 | 4.14 | 7.29 µM | 1.29 | 2.11 | 1.84 | 2.05 | 1.14 µM | 2.11 µM | 1.17 µM | 2.48 |  |  |  | 
CC(C)C(/C=C/c1ccccc1)=N\NC(=O)N/N=C(/C=C/c1ccccc1)C(C)C | 60.1 µM | 55.1 µM | 91.3 µM | > 100 µM |  | > 100 | > 100 | 93 µM |  |  |  |  |  |  |  |  |  |  |  | 
COc1ccc(CNc2nc3ccccc3nc2-c2cccs2)cc1OC |  | > 100 µM | 51.3 µM |  | > 100 µM | > 100 | > 100 | > 100 µM |  |  |  |  |  |  |  |  |  |  |  | 
O=C1C2Cc3ccccc3CN2C(=O)N1CN1CCN(CN2C(=O)C3Cc4ccccc4CN3C2=O)CC1 (stereo not drawn) | > 100 µM | > 100 µM | > 100 µM |  | > 100 µM | > 100 | > 100 | > 100 µM |  |  |  |  |  |  |  |  |  |  |  | 
CC(=O)Nc1ccc(-c2nnc(SCC(=O)Nc3ccccc3[N+](=O)[O-])o2)cc1 | > 100 µM | > 100 µM | > 100 µM | > 100 µM | > 100 µM | > 100 | > 100 | > 100 µM |  |  |  |  |  |  |  |  |  |  |  | 
O=C1c2cnccc2Cc2cccc3c2N1c1ccccc1S3 | 73.6 µM | 78.2 µM | 38.5 µM | 58.8 µM | 62.4 µM |  |  |  |  |  |  |  |  |  |  |  |  |  |  | 
CC(C)O/C=C1\C(=O)C2(SCCS2)[C@H]2CCCC[C@@H]12 |  | > 100 µM |  | > 100 µM | > 100 µM | > 100 | > 100 | > 100 µM |  |  |  |  |  |  |  |  |  |  |  | 
COc1cc2ccc(CC#N)cc2cc1OC | > 100 µM | > 100 µM | > 100 µM |  | > 100 µM | > 100 | > 100 | > 100 µM |  |  |  |  |  |  |  |  |  |  |  | 
O=C(N/C(=C\c1ccc([N+](=O)[O-])cc1)c1nc2[nH]c(=S)[nH]c(=O)c2[nH]1)c1ccccc1 | > 100 µM |  | > 100 µM | > 100 µM | > 100 µM | > 100 | > 100 | > 100 µM |  |  |  |  |  |  |  |  |  |  |  | 
O=C1Cc2ccccc2N1/N=C\c1ccc(O)cc1 | > 100 µM | > 100 µM | > 100 µM | > 100 µM | > 100 µM | > 100 | > 100 | > 100 µM |  |  |  |  |  |  |  |  |  |  |  | 
COC1=NN2C(OC)(c3ccccc3)c3c(-c4ccccc4)sc(-c4ccccc4)c3C2(c2ccccc2)S1 (stereo not drawn) |  | > 100 µM | > 100 µM | > 10 µM | > 100 µM | > 100 | > 100 | > 100 µM |  |  |  |  |  |  |  |  |  |  |  | 
CC1SC2=NC3=C(c4ccccc4C3=O)C(c3ccc(Br)cc3)N2C1=O (stereo not drawn) | > 100 µM | > 100 µM | > 100 µM | > 100 µM | > 100 µM | > 100 |  | > 100 µM |  |  |  |  |  |  |  |  |  |  |  | 
CCOC(=O)c1c(-c2[nH]c(C(=O)OCc3ccccc3)c(C)c2C(=O)OCC)[nH]c(C(=O)OCc2ccccc2)c1C | > 100 µM | > 100 µM | > 100 µM | > 100 µM | > 100 µM | > 100 | > 100 | > 100 µM |  |  |  |  |  |  |  |  |  |  |  | 
NNC(=O)CC(=O)Nc1ccccc1F | > 100 µM | > 100 µM | > 100 µM | > 100 µM | > 100 µM | > 100 | > 100 | > 100 µM |  |  |  |  |  |  |  |  |  |  |  | 
CC[C@](O)(C(=O)O)c1cc2n(c(=O)c1CO)Cc1cc3ccccc3nc1-2 | 1.11 µM and 0.412 µM | 0.132 µM and 0.0963 µM | 5.67 µM and 0.567 µM | 0.0511 µM and 0.181 µM | 4.75 µM and 4.12 µM and 0.807 µM |  |  | 0.161 µM and 0.167 µM |  | 0.0316 | 0.163 | 0.0108 | 0.0642 µM and 0.272 µM | 0.0292 µM and 0.0262 µM and 0.0353 µM | 0.242 µM and 0.135 µM | 0.0189 | < 0.0025 | 0.559 µM and 0.417 µM | 0.00661 µM and 0.012 µM | 0.224 µM and 0.121 µM and 0.0889 µM
C#CCOCn1cnc2ncnc(Cl)c21 | > 100 µM | > 100 µM | > 100 µM | > 100 µM | > 100 µM | > 100 | > 100 | > 100 µM |  |  |  |  |  |  |  |  |  |  |  | 
C(=C1\CCC/C(=C/c2ccccc2)C1=NNc1ccccc1)/c1ccccc1 | > 100 µM | > 100 µM | > 100 µM | > 100 µM | > 100 µM | > 100 | > 100 | > 100 µM |  |  |  |  |  |  |  |  |  |  |  | 
OCCc1cnco1 | > 100 µM | > 100 µM |  | > 100 µM |  | > 100 | > 100 |  |  |  |  |  |  |  |  |  |  |  |  | 
Cn1c2ccccc2c2cc(-c3ccccc3)c3c(c21)C(=O)C=CC3=O | 19.8 µM | 40.6 µM | 29.9 µM | 47.9 µM | 40.2 µM | 78.3 | > 64.8 | 42.9 µM |  |  |  |  |  |  |  |  |  | > 100 µM |  | > 100 µM
CC1=C(C(=O)Nc2ccccc2C)C(c2ccc(N(C)C)cc2)C(C(=O)Nc2ccccc2C)=C(C)N1 | > 100 µM | > 100 µM |  |  | > 100 µM | > 100 |  | > 100 µM |  |  |  |  |  |  |  |  |  |  |  | 
CSC(=S)N(C)NC(=O)c1cccc(C(=O)NN(C)C(=S)SC)n1 | 17 µM | 54.1 µM | 55 µM | > 100 µM |  | > 100 | > 100 |  |  |  |  |  |  |  |  |  |  |  |  | 
COc1cc2c(c3oc(-c4ccc5c(c4)OCO5)c(O)c(=O)c13)CCC(C)(C)O2 | > 100 µM | > 100 µM |  | > 100 µM |  | > 100 | > 100 | > 100 µM |  |  |  |  |  |  |  |  |  |  |  | 
CN(C)c1nc(N(C)C)nc(N(C)CN(C)c2nc(N(C)C)nc(N(C)C)n2)n1 | > 100 µM | > 100 µM | > 100 µM | > 100 µM | > 100 µM | > 100 | > 100 | > 100 µM |  |  |  |  |  |  |  |  |  |  |  | 
